Assay results published in ChEMBL document CHEMBL1201862, “PubChem BioAssay data set” (2004).
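The compound was tested at five concentrations on cells cultured in 96-well plates, with a 48-hour exposure period. Here, GI50 denotes the concentration required for 50% inhibition of growth.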 The source made the active and inactive calls. No stated cut-off is given here; in the data, active = GI50 up to about 1.1 µM and inactive = higher.

Columns and labels:
Test in all cases: NCI tumour cell line growth inhibition, 48 h
[1] = system: TK-10
[2] = system: NCI-H460
[3] = system: Malme-3M
[4] = system: OVCAR-8
[5] = system: SF-268
[6] = system: HCC 2998
[7] = system: KM12
[8] = system: COLO 205
[9] = system: EKVX
[10] = system: SK-MEL-28
[11] = system: MCF7
[12] = system: OVCAR-4
[13] = system: SW-620
[14] = system: SF-539
[15] = system: UO-31
[16] = system: 786-0
[17] = system: NCI-H226
[18] = system: SK-OV-3
[19] = system: SNB-75
[20] = system: SNB-19
[21] = system: LOX IMVI
[22] = system: MOLT-4
[23] = system: SK-MEL-2
[24] = system: NCI-H522
[25] = system: RPMI-8226
[26] = system: BT-549
[27] = system: PC-3
[28] = system: K562
[29] = system: OVCAR-5
[30] = system: Hs-578T
[31] = system: SK-MEL-5
[32] = system: HCT-116
[33] = system: MDA-N
[34] = system: IGROV-1
[35] = system: HOP-92
[36] = system: A498
[37] = system: MDA-MB-435
[38] = system: OVCAR-3
[39] = system: CCRF-CEM
[40] = system: SF-295
[41] = system: DU-145
[42] = system: CAKI-1
[43] = system: HT-29
[44] = system: SR
[45] = system: UACC-257
[46] = system: SN12C
[47] = system: ACHN
[48] = system: A549
[49] = system: UACC-62
[50] = system: T47D
[51] = system: HL-60
[52] = system: U-251
[53] = system: MDA-MB-231
[54] = system: NCI/ADR-RES
[55] = system: M14
[56] = system: HCT-15
[57] = system: HOP-62
[58] = system: NCI-H23
[59] = system: RXF 393

C=C1CC(CN2CCC(=O)NC2=O)(c2ccccc2)OC1=O (stereo unspecified)
GI50 [1]: 5940 nM (inactive) | GI50 [2]: 19400 nM (inactive) | GI50 [3]: 3530 nM (inactive) | GI50 [4]: 16400 nM (inactive) | GI50 [5]: 23600 nM (inactive) | GI50 [6]: 15000 nM (inactive) | GI50 [7]: 20900 nM (inactive) | GI50 [8]: 2360 nM (inactive) | GI50 [9]: 18800 nM (inactive) | GI50 [10]: 13400 nM (inactive) | GI50 [11]: 1640 nM (inactive) | GI50 [12]: 1810 nM (inactive) | GI50 [13]: 1940 nM (inactive) | GI50 [14]: 13700 nM (inactive) | GI50 [15]: 18000 nM (inactive) | GI50 [16]: 4470 nM (inactive) | GI50 [17]: 15600 nM (inactive) | GI50 [18]: 16500 nM (inactive) | GI50 [19]: 18100 nM (inactive) | GI50 [20]: > 41400 nM (inactive) | GI50 [21]: 3750 nM (inactive) | GI50 [22]: 2250 nM (inactive) | GI50 [23]: 12600 nM (inactive) | GI50 [24]: 859 nM (active) | GI50 [25]: 2190 nM (inactive) | GI50 [26]: 7210 nM (inactive) | GI50 [27]: 16100 nM (inactive) | GI50 [28]: 2390 nM (inactive) | GI50 [29]: 15100 nM (inactive) | GI50 [30]: 16100 nM (inactive) | GI50 [31]: 12400 nM (inactive) | GI50 [32]: 3350 nM (inactive) | GI50 [33]: 10800 nM (inactive) | GI50 [34]: 7870 nM (inactive) | GI50 [35]: 1450 nM (inactive) | GI50 [36]: 19200 nM (inactive) | GI50 [37]: 8890 nM (inactive) | GI50 [38]: 13000 nM (inactive) | GI50 [39]: 1840 nM (inactive) | GI50 [40]: 20700 nM (inactive) | GI50 [41]: 15900 nM (inactive) | GI50 [42]: 2750 nM (inactive) | GI50 [43]: 7710 nM (inactive) | GI50 [44]: 2090 nM (inactive) | GI50 [45]: 8990 nM (inactive) | GI50 [46]: 17600 nM (inactive) | GI50 [47]: 9160 nM (inactive) | GI50 [48]: 16900 nM (inactive) | GI50 [49]: 8550 nM (inactive) | GI50 [50]: 3130 nM (inactive) | GI50 [51]: 1620 nM (inactive) | GI50 [52]: 17700 nM (inactive) | GI50 [53]: 15000 nM (inactive) | GI50 [54]: 11600 nM (inactive) | GI50 [55]: 3080 nM (inactive) | GI50 [56]: 4980 nM | GI50 [57]: 21300 nM (inactive) | GI50 [58]: 7180 nM (inactive)

COc1cccc2c1C(=O)c1ccc3cc(CO)cc(O)c3c1C2=O
GI50 [1]: 3010 nM (inactive) | GI50 [2]: 304 nM (active) | GI50 [3]: 46 nM (active) | GI50 [4]: 231 nM (active) | GI50 [5]: 815 nM (active) | GI50 [7]: 893 nM (active) | GI50 [8]: 1530 nM (inactive) | GI50 [9]: 1870 nM (inactive) | GI50 [10]: 1860 nM (inactive) | GI50 [11]: 410 nM (active) | GI50 [12]: 652 nM (active) | GI50 [13]: 190 nM (active) | GI50 [14]: 329 nM (active) | GI50 [15]: 982 nM (active) | GI50 [16]: 619 nM (active) | GI50 [17]: 908 nM (active) | GI50 [18]: 2330 nM (inactive) | GI50 [19]: 4290 nM (inactive) | GI50 [20]: 1790 nM (inactive) | GI50 [21]: 1800 nM (inactive) | GI50 [22]: 405 nM (active) | GI50 [23]: 798 nM (active) | GI50 [24]: 865 nM (active) | GI50 [25]: 740 nM (active) | GI50 [26]: 1580 nM (inactive) | GI50 [27]: 215 nM (active) | GI50 [28]: 1410 nM (inactive) | GI50 [29]: 2090 nM (inactive) | GI50 [30]: 3700 nM (inactive) | GI50 [31]: 139 nM (active) | GI50 [32]: 252 nM (active) | GI50 [33]: 190 nM (active) | GI50 [34]: 1380 nM (inactive) | GI50 [35]: 573 nM (active) | GI50 [36]: 3520 nM (inactive) | GI50 [37]: 201 nM (active) | GI50 [38]: 169 nM (active) | GI50 [39]: 204 nM (active) | GI50 [40]: 3030 nM (inactive) | GI50 [41]: 733 nM (active) | GI50 [42]: 2720 nM (inactive) | GI50 [43]: 813 nM (active) | GI50 [44]: 267 nM (active) | GI50 [45]: 87.9 nM (active) | GI50 [46]: 748 nM (active) | GI50 [59]: 1340 nM (inactive) | GI50 [47]: 509 nM (active) | GI50 [48]: 624 nM (active) | GI50 [49]: 279 nM (active) | GI50 [50]: 1720 nM (inactive) | GI50 [51]: 171 nM (active) | GI50 [52]: 1450 nM (inactive) | GI50 [53]: 594 nM (active) | GI50 [54]: 515 nM (active) | GI50 [55]: 245 nM (active) | GI50 [56]: 321 nM | GI50 [57]: 2090 nM (inactive) | GI50 [58]: 288 nM (active)
